The record followed here is patent publication US11498896B2 (The Broad Institute, Inc., priority 2014, dated 2022).

As a reminder, the EC50 is the concentration needed to bring the measured effect to its halfway point. A higher EC50 goes with a need for much substance. As usually defined, the IC50 is the concentration at which inhibition is half-maximal. A high value points to weaker potency in that assay.

In assay [1] the target is T1, human D2R/β-arrestin (Homo sapiens (Human), UniProt P14416). Kind of assay: β-arrestin agonist assay (PathHunter). In kind it is cell-based. The following applies: CHO-K1 cells expressing human D2R/β-arrestin; agonist mode. The protocol: The detection reagent (9.6 μL, Buffer:Emerald II:Galactor-Star in a 19:5:1 ratio, i.e., 14.06 mL:3.7 mL:0.74 mL=18.5 mL) was then added to the agonist plates.
T1 sequence (P14416 whole entry): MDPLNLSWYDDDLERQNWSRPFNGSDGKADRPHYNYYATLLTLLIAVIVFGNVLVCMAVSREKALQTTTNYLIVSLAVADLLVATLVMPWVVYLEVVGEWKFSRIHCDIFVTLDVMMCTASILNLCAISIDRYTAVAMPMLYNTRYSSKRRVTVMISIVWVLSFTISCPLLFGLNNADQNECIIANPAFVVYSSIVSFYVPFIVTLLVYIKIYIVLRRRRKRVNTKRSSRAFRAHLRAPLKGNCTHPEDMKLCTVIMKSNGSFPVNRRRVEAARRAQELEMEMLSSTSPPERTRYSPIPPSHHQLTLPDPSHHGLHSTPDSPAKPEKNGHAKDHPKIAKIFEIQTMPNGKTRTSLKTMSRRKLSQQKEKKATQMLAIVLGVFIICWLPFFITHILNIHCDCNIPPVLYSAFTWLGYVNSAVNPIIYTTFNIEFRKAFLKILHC

Assay [2] has as its target T1, human D2R/β-arrestin. Kind of assay: Gi/cAMP agonist assay (Lance Ultra cAMP, forskolin). The format is cell-based. The following applies: CHO-K1 cells expressing human D2R/β-arrestin; agonist mode, 2.5 μM forskolin. The protocol:
Eu-cAMP tracer solution (10 μl, PerkinElmer, 360 μl of Tracer in 17.64 ml kit buffer) and ULight-anti-cAMP solution (10 μl, 120 μL antibody in 17.88 ml kit buffer) was then added to each well.

The target in assay [3] is T1, human D2R/β-arrestin. Kind of assay: cell-based. To be noted: β-arrestin Antagonist, CHO-K1 cells expressing human D2R/β-arrestin; antagonist mode, quinpirole 130 nM.
In assay [4] the target is T1, human D2R/β-arrestin. Kind of assay: cell-based. The following applies: cAMP Antagonist, CHO-K1 cells expressing human D2R/β-arrestin; antagonist mode, 2.5 μM forskolin and 2.7 nM quinpirole.

On to `COc1cc2c(cc1O)C1Cc3ccc(O)c(OC)c3CN1CC2` (racemic) [D,L-Stepholidine, reference compound], for which the EC50 on human D2R/β-arrestin [1] and at human D2R/β-arrestin [2] was greater than 30 µM in each case. For the same molecule, the IC50 against human D2R/β-arrestin [3] and against human D2R/β-arrestin [4] was less than 0.1 µM throughout.

For the molecule `CNC(=O)C1(C)CCN(CC2COc3ccccc3O2)CC1` (single isomer, unassigned) [Compound 202a, 1-((2,3-dihydrobenzo[b][1,4]dioxin-2-yl)methyl)-N,4-dimethylpiperidine-4-carboxamide], the EC50 at human D2R/β-arrestin [1] was greater than 30 µM; at human D2R/β-arrestin [2] it was 0.1 to 1 µM. The figures for the IC50 against human D2R/β-arrestin [3] and against human D2R/β-arrestin [4] were 10 to 30 µM and 1 to 10 µM, respectively.

For the molecule `CC1(C(=O)NC2CC2)CCN(CC2COc3ccccc3O2)CC1` (single isomer, unassigned) [Compound 203a, N-cyclopropyl-1-((2,3-dihydrobenzo[b][1,4]dioxin-2-yl)methyl)-4-methylpiperidine-4-carboxamide], the figures for the EC50 on human D2R/β-arrestin [1] and on human D2R/β-arrestin [2] were greater than 30 µM and less than 0.1 µM, respectively. Moreover, the IC50 on human D2R/β-arrestin [3] was 0.1 to 1 µM; against human D2R/β-arrestin [4] it was 1 to 10 µM.

As to `CC1(C(=O)NC2CC2)CCN(CC2COc3ccccc3O2)CC1` (single isomer, unassigned) [Compound 203b, N-cyclopropyl-1-((2,3-dihydrobenzo[b][1,4]dioxin-2-yl)methyl)-4-methylpiperidine-4-carboxamide], the EC50 at human D2R/β-arrestin [1] and at human D2R/β-arrestin [2] was greater than 30 µM throughout. In addition, the IC50 against human D2R/β-arrestin [3] and on human D2R/β-arrestin [4] was 10 to 30 µM each time.

In the case of `CC1(C(=O)Nc2ccccc2)CCN(CC2COc3ccccc3O2)CC1` (single isomer, unassigned) [Compound 204a, 1-((2,3-dihydrobenzo[b][1,4]dioxin-2-yl)methyl)-4-methyl-N-phenylpiperidine-4-carboxamide], the EC50 at human D2R/β-arrestin [1] and on human D2R/β-arrestin [2] was greater than 30 µM throughout. Also, the IC50 on human D2R/β-arrestin [3] and against human D2R/β-arrestin [4] was 1 to 10 µM throughout.

In the case of `FC(F)(F)c1ccccc1OCCN1CCC2(CC1)CC2c1ccc(Cl)cc1` (single isomer, unassigned) [Compound 216a, 1-(4-chlorophenyl)-6-(2-(2-(trifluoromethyl)phenoxy)ethyl)-6-azaspiro[2.5]octane], the EC50 at human D2R/β-arrestin [1] and at human D2R/β-arrestin [2] was greater than 30 µM in each case. Moreover, the IC50 at human D2R/β-arrestin [3] and on human D2R/β-arrestin [4] was 1 to 10 µM each time.

`FC(F)(F)c1ccccc1OCCN1CCC2(CC1)CC2c1ccc(Cl)cc1` (single isomer, unassigned) [Compound 216b, 1-(4-chlorophenyl)-6-(2-(2-(trifluoromethyl)phenoxy)ethyl)-6-azaspiro[2.5]octane]: the EC50 on human D2R/β-arrestin [1] is greater than 30 µM; at human D2R/β-arrestin [2], 10 to 30 µM. The IC50 on human D2R/β-arrestin [3] is 10 to 30 µM; against human D2R/β-arrestin [4], greater than 30 µM.

Consider `COc1ccccc1OCCN1CCC(C)(Oc2ccc(Cl)cc2)C1` (centres unmarked) [Compound 2, 3-(4-Chlorophenoxy)-1-(2-(2-methoxyphenoxy)ethyl)-3-methyl pyrrolidine], for which the EC50 at human D2R/β-arrestin [1] and on human D2R/β-arrestin [2] was greater than 30 µM each time. Further, the IC50 on human D2R/β-arrestin [3] and against human D2R/β-arrestin [4] was 0.1 to 1 µM in each case.

Regarding `CC1(Oc2ccc(Cl)cc2)CCN(CCCCOc2ccccc2)C1` (centres unmarked) [Compound 3, 3-(4-chlorophenoxy)-3-methyl-1-(4-phenoxybutyl)pyrrolidine], the EC50 on human D2R/β-arrestin [1] and at human D2R/β-arrestin [2] was greater than 30 µM each time. Also, the results for the IC50 on human D2R/β-arrestin [3] and on human D2R/β-arrestin [4] were 1 to 10 µM and 0.1 to 1 µM, respectively.

Regarding `CC1(Oc2ccc(Cl)cc2)CCN(CCCOc2ccccc2)C1` (centres unmarked) [Compound 4, 3-(4-chlorophenoxy)-3-methyl-1-(3-phenoxypropyl)pyrrolidine], the EC50 on human D2R/β-arrestin [1] and at human D2R/β-arrestin [2] was greater than 30 µM throughout. Further, the IC50 fell in the range of 1 to 10 µM at human D2R/β-arrestin [3] and 0.1 to 1 µM against human D2R/β-arrestin [4].

As for `CC1(Oc2ccc(Cl)cc2)CCN(CCOc2ccccc2Cl)C1` (centres unmarked) [Compound 5, 3-(4-chlorophenoxy)-1-(2-(2-chlorophenoxy)ethyl)-3-methylpyrrolidine], the EC50 at human D2R/β-arrestin [1] and at human D2R/β-arrestin [2] was greater than 30 µM throughout. In addition, the IC50 against human D2R/β-arrestin [3] was 0.1 to 1 µM; against human D2R/β-arrestin [4] it was less than 0.1 µM.

Regarding `Cc1ccccc1OCCN1CCC(C)(Oc2ccc(Cl)cc2)C1` (centres unmarked) [Compound 6, 3-(4-chlorophenoxy)-3-methyl-1-(2-(o-tolyloxy)ethyl)pyrrolidine], the EC50 on human D2R/β-arrestin [1] and on human D2R/β-arrestin [2] was greater than 30 µM in each case. The IC50 was in the range of 1 to 10 µM at human D2R/β-arrestin [3] and 0.1 to 1 µM on human D2R/β-arrestin [4].

With `CC1(Oc2ccc(Cl)cc2)CCN(CCOc2ccccc2C(F)(F)F)C1` (centres unmarked) [Compound 8, 3-(4-chlorophenoxy)-3-methyl-1-(2-(2-(trifluoromethyl)phenoxy)ethyl) pyrrolidine], the EC50 at human D2R/β-arrestin [1] and at human D2R/β-arrestin [2] was greater than 30 µM throughout. For the same molecule, the figures for the IC50 against human D2R/β-arrestin [3] and against human D2R/β-arrestin [4] were 1 to 10 µM and 0.1 to 1 µM, respectively.

For the molecule `CC1(Oc2ccc(Cl)cc2)CCN(CCOc2ccccc2F)C1` (centres unmarked) [Compound 9, 3-(4-chlorophenoxy)-1-(2-(2-fluorophenoxy)ethyl)-3-methylpyrrolidine], the values for the EC50 on human D2R/β-arrestin [1] and on human D2R/β-arrestin [2] were greater than 30 µM and less than 0.1 µM, respectively. Also, the IC50 on human D2R/β-arrestin [3] is 0.1 to 1 µM; against human D2R/β-arrestin [4] it was greater than 30 µM.

Regarding `CC1(Oc2ccc(Cl)cc2)CCN(CCOc2cccc(Cl)c2)C1` (centres unmarked) [Compound 10, 3-(4-chlorophenoxy)-1-(2-(3-chlorophenoxy)ethyl)-3-methylpyrrolidine], the values for the EC50 at human D2R/β-arrestin [1] and on human D2R/β-arrestin [2] were greater than 30 µM and less than 0.1 µM, respectively. In addition, the IC50 was 1 to 10 µM on human D2R/β-arrestin [3] and greater than 30 µM against human D2R/β-arrestin [4].

For the molecule `Cc1cccc(OCCN2CCC(C)(Oc3ccc(Cl)cc3)C2)c1` (centres unmarked) [Compound 11, 3-(4-chlorophenoxy)-3-methyl-1-(2-(m-tolyloxy)ethyl)pyrrolidine], the EC50 at human D2R/β-arrestin [1] was greater than 30 µM; on human D2R/β-arrestin [2] it was less than 0.1 µM. For the same molecule, the IC50 lay in the range of 1 to 10 µM against human D2R/β-arrestin [3] and 0.1 to 1 µM against human D2R/β-arrestin [4].

On to `CC1(Oc2ccc(Cl)cc2)CCN(CCOc2cccnc2)C1` (centres unmarked) [Compound 12, 3-(2-(3-(4-chlorophenoxy)-3-methylpyrrolidin-1-yl)ethoxy)pyridine], for which the EC50 on human D2R/β-arrestin [1] and on human D2R/β-arrestin [2] was less than 0.1 µM throughout. The IC50 on human D2R/β-arrestin [3] and on human D2R/β-arrestin [4] was greater than 30 µM throughout.

In the case of `CC1(Oc2ccc(Cl)cc2)CCN(CCOc2cccc(C(F)(F)F)c2)C1` (centres unmarked) [Compound 13, 3-(4-chlorophenoxy)-3-methyl-1-(2-(3-(trifluoromethyl)phenoxy)ethyl) pyrrolidine], the EC50 at human D2R/β-arrestin [1] and on human D2R/β-arrestin [2] was greater than 30 µM each time. Besides, the figures for the IC50 at human D2R/β-arrestin [3] and against human D2R/β-arrestin [4] were 1 to 10 µM and 0.1 to 1 µM, respectively.

Take `CC1(Oc2ccc(Cl)cc2)CCN(CCOc2ccc(F)cc2)C1` (centres unmarked) [Compound 14, 3-(4-chlorophenoxy)-1-(2-(4-fluorophenoxy)ethyl)-3-methylpyrrolidine]: the EC50 at human D2R/β-arrestin [1] is greater than 30 µM; on human D2R/β-arrestin [2] it was less than 0.1 µM. Also, the IC50 was 1 to 10 µM on human D2R/β-arrestin [3] and 0.1 to 1 µM on human D2R/β-arrestin [4].

Take `CC1(Oc2ccc(Cl)cc2)CCN(CCOc2ccc(Cl)cc2)C1` (centres unmarked) [Compound 15, 3-(4-chlorophenoxy)-1-(2-(4-chlorophenoxy)ethyl)-3-methylpyrrolidine]: the EC50 at human D2R/β-arrestin [1] is greater than 30 µM; on human D2R/β-arrestin [2] it was less than 0.1 µM. Further, the IC50 on human D2R/β-arrestin [3] and against human D2R/β-arrestin [4] was 1 to 10 µM throughout.

Regarding `Cc1ccc(OCCN2CCC(C)(Oc3ccc(Cl)cc3)C2)cc1` (centres unmarked) [Compound 16, 3-(4-Chlorophenoxy)-3-methyl-1-(2-(p-tolyloxy)ethyl)pyrrolidine], the concentration for a half-maximal effect (EC50) was greater than 30 µM on human D2R/β-arrestin [1] and 0.1 to 1 µM on human D2R/β-arrestin [2]. Further, the half-inhibitory concentration (IC50) at human D2R/β-arrestin [3] is 1 to 10 µM; on human D2R/β-arrestin [4], greater than 30 µM.

For `CC1(Oc2ccc(Cl)cc2)CCN(CCOc2ccc(C(F)(F)F)cc2)C1` (centres unmarked) [Compound 17, 3-(4-chlorophenoxy)-3-methyl-1-(2-(4-(trifluoromethyl)phenoxy)ethyl) pyrrolidine], the half-maximal effective concentration (EC50) at human D2R/β-arrestin [1] and on human D2R/β-arrestin [2] was greater than 30 µM throughout. The IC50 lay in the range of 10 to 30 µM against human D2R/β-arrestin [3] and 1 to 10 µM on human D2R/β-arrestin [4].

On to `CC1(Oc2ccc(Cl)cc2)CCN(CCOc2ccc3ncsc3c2)C1` (centres unmarked) [Compound 18, 6-(2-(3-(4-chlorophenoxy)-3-methylpyrrolidin-1-yl)ethoxy)benzo[d]thiazole], for which the EC50 was greater than 30 µM at human D2R/β-arrestin [1] and 0.1 to 1 µM at human D2R/β-arrestin [2]. Besides, the figures for the IC50 against human D2R/β-arrestin [3] and on human D2R/β-arrestin [4] were 1 to 10 µM and greater than 30 µM, respectively.

As for `COc1cccc(OCCN2CCC(C)(Oc3ccc(Cl)cc3)C2)c1` (centres unmarked) [Compound 19, 3-(4-chlorophenoxy)-1-(2-(3-methoxyphenoxy)ethyl)-3-methyl pyrrolidine], the EC50 was 1 to 10 µM on human D2R/β-arrestin [1] and less than 0.1 µM on human D2R/β-arrestin [2]. Moreover, the IC50 at human D2R/β-arrestin [3] and on human D2R/β-arrestin [4] was greater than 30 µM throughout.

`COc1ccc(OCCN2CCC(C)(Oc3ccc(Cl)cc3)C2)cc1` (centres unmarked) [Compound 20, 3-(4-chlorophenoxy)-1-(2-(4-methoxyphenoxy)ethyl)-3-methyl pyrrolidine]: the EC50 at human D2R/β-arrestin [1] was greater than 30 µM; at human D2R/β-arrestin [2], less than 0.1 µM. The half-inhibitory concentration (IC50) at human D2R/β-arrestin [3] was 10 to 30 µM; at human D2R/β-arrestin [4] it was greater than 30 µM.

For the molecule `CC1(Oc2ccc(Cl)cc2)CCN(CCOC2CCCCC2)C1` (centres unmarked) [Compound 21, 3-(4-chlorophenoxy)-1-(2-(cyclohexyloxy)ethyl)-3-methylpyrrolidine], the half-maximal effective concentration (EC50) on human D2R/β-arrestin [1] and on human D2R/β-arrestin [2] was greater than 30 µM throughout. In addition, the IC50 against human D2R/β-arrestin [3] and against human D2R/β-arrestin [4] was 1 to 10 µM each time.
